Read-outs that look alike come from different tables or passages of the source.
Molecular target: T1, F508delCFTR (Homo sapiens, UniProt P13569, DEL508-508)
T1 construct: expressed in transfected cells; host or cells: CFBE41o- human lung-derived epithelial cells (CFBE4lo-F508delCFTR-HRP), doxycycline-inducible
Assay: Cell Surface Expression-Horse Radish Peroxidase (CSE-HRP) Assay;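 as to Maximum % activity (with co-corrector): co-corrector and positive control are both the same reference corrector at 2 µM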;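 as to Maximum % activity (without co-corrector): percent of the 2 µM on-plate positive control corrector response above DMSO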
Assay type: cell-based
Conditions: for Maximum % activity (with co-corrector) / Emax: maximum at any tested concentration, normalized to on-plate positive control; for Emax: read-out: Maximum % activity (without co-corrector)

[1] = test compound without co-corrector, read-out: EC50 (without co-corrector)
[2] = with co-corrector (2 μM of 3-[(2R,4R)-4-({[1-(2,2-difluoro-1,3-benzodioxol-5-yl)cyclopropyl]carbonyl}amino)-7-methoxy-3,4-dihydro-2H-chromen-2-yl]benzoic acid), read-out: EC50 (with co-corrector)
[3] = CSE-HRP, test compound without co-corrector, read-out: EC50 (without co-corrector)
[4] = CSE-HRP, with co-corrector (2 μM of 3-[(2R,4R)-4-({[1-(2,2-difluoro-1,3-benzodioxol-5-yl)cyclopropyl]carbonyl}amino)-7-methoxy-3,4-dihydro-2H-chromen-2-yl]benzoic acid), read-out: EC50 (with co-corrector)
[5] = CSE-HRP, with co-corrector (2 μM)
[6] = test compound without co-corrector
[7] = with co-corrector (2 μM of 3-[(2R,4R)-4-({[1-(2,2-difluoro-1,3-benzodioxol-5-yl)cyclopropyl]carbonyl}amino)-7-methoxy-3,4-dihydro-2H-chromen-2-yl]benzoic acid)

T1 sequence (P13569 with tags, fused parts or gaps DEL508-508): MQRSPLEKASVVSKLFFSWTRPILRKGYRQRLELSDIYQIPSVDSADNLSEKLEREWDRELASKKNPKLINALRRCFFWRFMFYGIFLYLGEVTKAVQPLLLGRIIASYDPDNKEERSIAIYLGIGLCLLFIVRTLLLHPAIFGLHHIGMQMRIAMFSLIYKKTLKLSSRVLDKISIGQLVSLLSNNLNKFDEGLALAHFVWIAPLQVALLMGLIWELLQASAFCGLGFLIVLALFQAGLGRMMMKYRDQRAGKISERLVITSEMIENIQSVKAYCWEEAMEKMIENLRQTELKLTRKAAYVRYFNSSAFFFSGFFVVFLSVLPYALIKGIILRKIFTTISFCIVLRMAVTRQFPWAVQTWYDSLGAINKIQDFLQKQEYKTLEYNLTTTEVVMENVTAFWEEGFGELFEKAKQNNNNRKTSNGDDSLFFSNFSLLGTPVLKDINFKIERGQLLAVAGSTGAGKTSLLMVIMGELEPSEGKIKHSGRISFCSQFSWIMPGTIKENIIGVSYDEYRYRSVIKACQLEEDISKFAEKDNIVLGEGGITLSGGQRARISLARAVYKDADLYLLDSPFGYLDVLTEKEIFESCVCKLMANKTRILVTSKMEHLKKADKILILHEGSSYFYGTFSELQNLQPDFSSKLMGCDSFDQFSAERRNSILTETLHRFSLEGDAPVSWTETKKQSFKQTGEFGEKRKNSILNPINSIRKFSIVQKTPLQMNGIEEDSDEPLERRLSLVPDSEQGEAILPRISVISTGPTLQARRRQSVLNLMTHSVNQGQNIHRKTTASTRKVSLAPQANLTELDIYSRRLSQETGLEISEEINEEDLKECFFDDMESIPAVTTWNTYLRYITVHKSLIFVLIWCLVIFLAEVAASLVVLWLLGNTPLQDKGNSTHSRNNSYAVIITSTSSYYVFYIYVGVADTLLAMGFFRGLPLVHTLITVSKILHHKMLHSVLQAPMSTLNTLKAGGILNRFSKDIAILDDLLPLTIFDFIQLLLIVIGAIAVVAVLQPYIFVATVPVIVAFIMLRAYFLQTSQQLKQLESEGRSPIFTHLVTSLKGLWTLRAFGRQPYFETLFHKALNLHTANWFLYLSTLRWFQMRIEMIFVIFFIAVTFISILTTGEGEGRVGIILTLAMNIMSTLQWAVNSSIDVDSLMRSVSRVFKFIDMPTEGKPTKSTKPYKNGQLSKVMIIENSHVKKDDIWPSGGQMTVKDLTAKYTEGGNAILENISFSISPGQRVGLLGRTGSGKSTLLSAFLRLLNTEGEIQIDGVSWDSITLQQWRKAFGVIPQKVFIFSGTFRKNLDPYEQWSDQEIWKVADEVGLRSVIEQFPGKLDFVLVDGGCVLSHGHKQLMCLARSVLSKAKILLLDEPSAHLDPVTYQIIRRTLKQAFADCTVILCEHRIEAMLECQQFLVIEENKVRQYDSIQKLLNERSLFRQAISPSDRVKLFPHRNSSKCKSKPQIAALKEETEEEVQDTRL

Row | EC50 [1] [nM] | EC50 [2] [nM] | Maximum % activity (with co-corrector) (with co-corrector (2 μM)) | Emax (without co-corrector) [%] | EC50 [3] [nM] | EC50 [4] [nM] | Maximum % activity (with co-corrector) [5] | Emax (CSE-HRP, without co-corrector) [%] | Emax [6] [%] | Maximum % activity (with co-corrector) [7] | SMILES
1 | > 10000 | 1000 to 10000 | ++ (≥150 and <350) | < 100 |  |  |  |  |  |  | COc1cc(N[C@H]2[C@H](C(C)(C)C)[C@@H](C(=O)O)N(C(=O)C3CCCCC3)[C@H]2c2ccccc2)nc(OC)n1 (racemic) [Example I-9]
2 |  |  |  |  | < 1000 | < 1000 | +++ (≥350) | > 200 |  |  | COc1ccc(C2CCCC2)cc1CN[C@H]1[C@H](C(C)(C)OC)[C@@H](C(=O)O)N(C(=O)C2CCCCC2)[C@H]1c1ccccc1 [II-256]
3 | 1000 to 10000 | < 1000 | +++ (≥350) |  |  |  |  |  | > 200 |  | COc1ccc(C(C)c2ccccc2)cc1CN[C@H]1[C@H](C(C)(C)C)[C@@H](C(=O)O)N(C(=O)C2CCCCC2)[C@H]1c1ccccc1 (stereo partly drawn) [III-171]
4 | < 1000 | < 1000 | +++ (≥350) | > 200 |  |  |  |  |  |  | COc1ncc(C2CCC2)cc1CN(C)[C@H]1[C@H](C(C)(C)C)[C@@H](C(=O)O)N(C(=O)[C@@H]2CCCCO2)[C@H]1c1ccccc1C(C)C [Example 119, (2S,3S,4S,5S)-3-tert-butyl-4-{[(5-cyclobutyl-2-methoxypyridin-3-yl)methyl](methyl)amino}-1-[(2S)-oxane-2-carbonyl]-5-[2-(propan-2-yl)phenyl]pyrrolidine-2-carboxylic acid]
5 |  |  |  |  | 1000 to 10000 | 1000 to 10000 | +++ (≥350) | < 100 |  |  | CC(C)(C)[C@@H]1[C@@H](NCc2cc(Cl)ccc2OC(F)F)[C@@H](c2ccccc2)N(C(=O)C2CCCCC2)[C@H]1C(=O)O (racemic) [II-8]
6 | 1000 to 10000 | 1000 to 10000 | +++ (≥350) | 100 to 200 |  |  |  |  |  |  | COc1ccc(C(C)(C)C)cc1CN[C@H]1[C@H](C(C)(C)C)[C@@H](C(=O)O)N(C(=O)C2(c3ccccc3)CC2)[C@H]1c1cccnc1OC [Example I-248]
7 | 1000 to 10000 | < 1000 | +++ (≥350) | > 200 |  |  |  |  |  |  | COc1ccc(C(C)(C)C)cc1CN[C@H]1[C@H](C23CC(C2)C3)[C@@H](C(=O)O)N(C(=O)C2CCCCC2)[C@H]1c1ccccc1 [Example I-202]
8 | 1000 to 10000 | < 1000 | +++ (≥350) | > 200 |  |  |  |  |  |  | COc1cc2c(cc1CN[C@H]1[C@H](C(C)(C)C)[C@@H](C(=O)O)N(C(=O)C3CCCCC3)[C@H]1c1ccccc1)CCC2 [Example I-49]
9 | 1000 to 10000 | 1000 to 10000 | ++ (≥150 and <350) | < 100 |  |  |  |  |  |  | COc1ncc(C2CCC2)cc1CN[C@H]1[C@H](C(C)(C)C)[C@@H](C(=O)O)N(C(=O)C2COc3ccccc3O2)[C@H]1c1ccccc1 (relative stereo) [Example I-205]
10 |  |  |  |  | 1000 to 10000 | 1000 to 10000 | +++ (≥350) | < 100 |  |  | COc1ccc(Cl)cc1CN[C@H]1[C@H](C(C)(C)C)[C@@H](C(=O)O)N(C(=O)C2CCCCC2)[C@H]1c1cccnc1C [II-95]
11 | 1000 to 10000 | 1000 to 10000 | +++ (≥350) | 100 to 200 |  |  |  |  |  |  | COc1nc(C2CCC2)ccc1CN[C@H]1[C@H](C(C)(C)C)[C@@H](C(=O)O)N(C(=O)C2CCCCC2)[C@H]1c1ccccc1 [Example I-242]
12 | 1000 to 10000 | < 1000 |  |  |  |  |  |  | > 200 | +++ (≥350) | COc1ccc(C(C)(C)C)cc1CN[C@H]1[C@H](C(C)(C)C)[C@@H](C(=O)O)N(C(=O)C2CCC(C)(C)C2)[C@H]1c1ccccc1 (stereo partly drawn) [II-401]
13 | 1000 to 10000 | 1000 to 10000 | +++ (≥350) | > 200 |  |  |  |  |  |  | COc1ccc(C(F)(F)F)cc1CN[C@@H]1[C@@H](C(C)(C)OC)[C@H](C(=O)O)N(C(=O)C2CCCCC2)[C@@H]1c1ccccc1 (racemic) [Example 6, rac-(2R,3R,4R,5R)-1-(cyclohexanecarbonyl)-3-(2-methoxypropan-2-yl)-4-({[2-methoxy-5-(trifluoromethyl)phenyl]methyl}amino)-5-phenylpyrrolidine-2-carboxylic acid]
14 | 1000 to 10000 | 1000 to 10000 | ++ (≥150 and <350) | < 100 |  |  |  |  |  |  | COc1cnc(N2CCCC2)cc1CN[C@H]1[C@H](C(C)(C)C)[C@@H](C(=O)O)N(C(=O)C2CCCCC2)[C@H]1c1ccccc1 [Example I-212]
15 |  |  |  |  | 1000 to 10000 | 1000 to 10000 | +++ (≥350) | 100 to 200 |  |  | COc1ccc(C(F)(F)F)cc1CN[C@H]1[C@H](C(C)(C)C)[C@@H](C(=O)O)N(C(=O)[C@@H]2CCCCO2)[C@H]1c1cccc2c1OCC2 [Example I-299]
16 | < 1000 | < 1000 | +++ (≥350) | > 200 |  |  |  |  |  |  | COc1ccc(C(C)(C)C)cc1CN[C@H]1[C@H](C(C)(C)C)[C@@H](C(=O)O)N(C(=O)C(OC)c2ccc(F)c(F)c2)[C@H]1c1ccccc1 (relative stereo) [Example I-159]
17 | 1000 to 10000 | < 1000 | +++ (≥350) | > 200 |  |  |  |  |  |  | COc1ccc(C(C)(C)C)cc1CN[C@H]1[C@H](C(C)(C)C)[C@@H](C(=O)O)N(C(=O)OC(C)C)[C@H]1c1cccc(Cl)c1 [Example 86, (2S,3S,4S,5S)-3-tert-butyl-4-{[(5-tert-butyl-2-methoxyphenyl)methyl]amino}-5-(3-chlorophenyl)-1-{[(propan-2-yl)oxy]carbonyl}pyrrolidine-2-carboxylic acid]
18 | < 1000 | < 1000 |  |  |  |  |  |  | 100 to 200 | +++ (≥350) | COc1ncc(C2(C)CC2(F)F)cc1CN[C@H]1[C@H](C(C)(C)C)[C@@H](C(=O)O)N(C(=O)C2CCCCC2)[C@H]1c1ccccc1 (stereo partly drawn) [II-422]
19 |  |  |  |  | 1000 to 10000 | 1000 to 10000 | +++ (≥350) | > 200 |  |  | COc1ccc(C(C)(C)C)cc1CN[C@H]1[C@H](C(C)(C)C)[C@@H](C(=O)O)N(C(=O)C2CC(C)CCO2)[C@H]1c1ccccc1 (stereo partly drawn) [II-174]
20 |  |  |  |  | 1000 to 10000 | 1000 to 10000 | +++ (≥350) | 100 to 200 |  |  | COc1ccc(C(C)(C)C)cc1CN[C@H]1[C@H](C(C)(C)C)[C@@H](C(=O)O)N(C(=O)C2CC(=O)N(C(C)C)C2)[C@H]1c1ccccc1 (stereo partly drawn) [II-238]
21 | 1000 to 10000 | 1000 to 10000 |  |  |  |  |  |  | 100 to 200 | +++ (≥350) | COc1ccc(C(C)(C)C)cc1CN[C@H]1[C@H](C(C)(C)C)[C@@H](C(=O)O)N(C(=O)C2CC2c2ccncc2)[C@H]1c1ccccc1 (stereo partly drawn) [II-331]
22 |  |  |  |  | 1000 to 10000 | 1000 to 10000 | +++ (≥350) | 100 to 200 |  |  | COc1ccc(C(F)(F)F)cc1CN[C@@H]1[C@@H](C(C)(C)C)[C@H](C(=O)O)N(C(=O)C2CCCCC2)[C@@H]1c1ccccc1OC (racemic) [II-17]
23 | > 10000 | 1000 to 10000 | ++ (≥150 and <350) | < 100 |  |  |  |  |  |  | CC(C)(C)[C@H]1[C@H](NCc2cc(Cl)ccc2O)[C@H](c2ccccc2)N(C(=O)C2CCCCC2)[C@@H]1C(=O)O [Example I-51]
24 | < 1000 | < 1000 | +++ (≥350) | > 200 |  |  |  |  |  |  | COc1nc(C(C)(C)C)ccc1CN[C@H]1[C@H](C(C)(C)C)[C@@H](C(=O)O)N(C(=O)OC(C)C)[C@H]1c1ccccc1C(C)C [Example I-216]
25 |  |  |  |  | < 1000 | < 1000 | +++ (≥350) | > 200 |  |  | COc1ccc(-c2ccc(F)cc2C)cc1CN[C@H]1[C@H](C(C)(C)C)[C@@H](C(=O)O)N(C(=O)C2CCCCC2)[C@H]1c1ccccc1 [II-282]
26 | < 1000 | < 1000 |  |  |  |  |  |  | < 100 | +++ (≥350) | COc1ccc(C(C)(C)C)cc1CN[C@H]1[C@H](C(C)(C)C)[C@@H](C(=O)O)N(C(=O)C2(c3ccccc3)COc3ccccc32)[C@H]1c1ccccc1 (stereo partly drawn) [II-370]
27 | 1000 to 10000 | 1000 to 10000 |  |  |  |  |  |  | < 100 | ++ (≥150 and <350) | COc1ccc(C(C)(C)C)cc1CN[C@H]1[C@H](C(C)(C)C)[C@@H](C(=O)O)N(C(=O)[C@@H](C)c2ccccc2)[C@H]1c1cccnc1OC [II-539]
28 |  |  |  |  | 1000 to 10000 | 1000 to 10000 | +++ (≥350) | 100 to 200 |  |  | COc1cc(C)ccc1CN[C@H]1[C@H](C(C)(C)C)[C@@H](C(=O)O)N(C(=O)C2CCCCC2)[C@H]1c1cccnc1OC [II-138]
29 |  |  |  |  | < 1000 | < 1000 | +++ (≥350) | 100 to 200 |  |  | CC(C)(C)[C@H]1[C@H](Nc2cc(C(F)(F)F)cc(C(F)(F)F)c2)[C@H](c2ccccc2)N(C(=O)C2CCCCC2)[C@@H]1C(=O)O [II-148]
30 | > 10000 | > 10000 |  |  |  |  |  |  | < 100 | + (<150) | COc1ccncc1CN[C@@H]1[C@@H](C(C)(C)C)[C@H](C(=O)O)N(C(=O)C2CCCCC2)[C@@H]1c1ccccc1 (racemic) [III-16]

Source: patent US20180099931A1 (AbbVie S.à.r.l., priority 2016, published 2018)
